Reference: patent US4119722A, “Method for control of fungi using 4-halo-5-aryl-1,2,3,-dithiazoles” (Chevron Research Company, priority 1977, dated 1978)

Tests used:
[1] = system: mite eggs (Tetramuchus urticae); test: Mite control test, mite eggs; assay type: in vivo; settings: 40-ppm leaf dip, egg mortality (non-hatching eggs) 7 days after treatment
Procedure: (§1) Compounds of the invention were tested for the control mites and mite eggs by the following procedure. Pinto bean leaves were invested with two spotted-mites (Tetramuchus urticae). The mites were then allowed to lay eggs on the leaves. After 48 hours, the leaves were dipped into a water/acetone solution containing a small amount of a non-ionic surfactant and 40-ppm of the test compound. The treated leaves were then maintained at 85° F. One day after treatment, the mortality of adult mites was determined, and 7 days after treatment, the egg mortality (non-hatching eggs) was determined.

[2] = system: two spotted-mites (Tetramuchus urticae); test: Mite control test, adult mites; assay type: in vivo; settings: 40-ppm leaf dip, adult mortality one day after treatment; 1440 min
Procedure: as §1

Wild Oats (Avena fatua) = test: Post-emergent herbicidal test; assay type: in vivo; settings: post-emergence, 504 h, 33 mcg/cm^2, 3 weeks, scale 0 (no phytotoxicity) to 100 (complete kill), read-out: Herbicidal Effectiveness (O)
Procedure: (§2) Post-emergent herbicidal tests with representative compounds of this invention were made using the following method.
(§3) An acetone solution of the test compound was prepared by mixing 750 mg of the compound, 220 mg of a nonionic surfactant and 25 ml of acetone. This solution was added to approximately 125 ml of water containing 156 mg of surfactant.
(§4) This test solution was uniformly sprayed on 2 similar pots of 24-day-old plants (approximately 15 to 25 plants per pot) at a dose of 33 mcg/cm^2. After the plants had dried, they were placed in a greenhouse and then watered intermittently at their bases, as needed. The plants were observed periodically for phytotoxic effects and physiological and morphological responses to the treatment. After 3 weeks, the herbicidal effectiveness of the compound was rated based on these observations. A 0-to-100 scale was used, 0 representing no phytotoxicity and 100 representing complete kill.

[3] = system: Crabgrass (Digitaria sanguinalis); test: Post-emergent herbicidal test; assay type: in vivo; settings: post-emergence, 504 h, 33 mcg/cm^2, 3 weeks, scale 0 (no phytotoxicity) to 100 (complete kill), read-out: Herbicidal Effectiveness (C)
Procedure: as §2, §3, §4

[4] = system: Mustard (Brassica arvensis); test: Post-emergent herbicidal test; assay type: in vivo; settings: post-emergence, 504 h, 33 mcg/cm^2, 3 weeks, scale 0 (no phytotoxicity) to 100 (complete kill), read-out: Herbicidal Effectiveness (L)
Procedure: as §2, §3, §4

[5] = system: Lambsquarter (Chenopodium album); test: Post-emergent herbicidal test; assay type: in vivo; settings: post-emergence, 504 h, 33 mcg/cm^2, 3 weeks, scale 0 (no phytotoxicity) to 100 (complete kill), read-out: Herbicidal Effectiveness (P)
Procedure: as §2, §3, §4

[6] = system: Watergrass (Echinochloa Crusgalli); test: Post-emergent herbicidal test; assay type: in vivo; settings: Echinochloa crus-galli, post-emergence, 504 h, 33 mcg/cm^2, 3 weeks, scale 0 (no phytotoxicity) to 100 (complete kill), read-out: Herbicidal Effectiveness (W)
Procedure: as §2, §3, §4

[7] = system: Pigweed (Amaranthus retroflexus); test: Post-emergent herbicidal test; assay type: in vivo; settings: post-emergence, 504 h, 33 mcg/cm^2, 3 weeks, scale 0 (no phytotoxicity) to 100 (complete kill), read-out: Herbicidal Effectiveness
Procedure: as §2, §3, §4

Erysiphe polygoni = test: Powdery Mildew control on bean seedlings; assay type: in vivo; settings: 250-ppm spray, about 10 days
From the text: The powdery mildew test was made using bean seedlings (var. Bountiful) with well-developed primary leaves. The pathogen was Erysiphe polygoni. The bean seedlings were sprayed with a 250-ppm solution of the test compound in an acetone-water mixture containing a nonionic emulsifer. The treated plants were inoculated one day after spray application of the test compound with the pathogen. […] The rate of infection on the leaves was made after about 10 days. The percent disease control provided by a given test compound was based on the disease reduction relative to untreated check plants.

Fusarium moniloforma = test: Mycelia Inhibition; assay type: cell-based; settings: 25° C., 24 hours
Procedure: (§5) The compounds of the present invention were evaluated for fungicidal effectiveness by means of a mycelial inhibition test. This test is designed to measure the fungitoxic acitvity of fungicidal chemicals in terms of their degree of inhibition of mycelium growth. Each compound to be tested was dissolved in acetone to 500 ppm concentration. Paper strips were innoculated with the particular mycelium growth by covering the paper with a potato dextrose broth culture of mycelial suspension. The innoculated papers were then placed on potato dextrose agar plates and sprayed by means of a micro sprayer with the fungicidal solution. The treated paper strips were incubated at 25° C. and data is taken after 24 hours. Fungicidal activities are measured by a zone of inhibited mycelial growth from the center of the paper strip. The effectiveness of the compounds tested for fungicidal activity is reported in Table VI in terms of the microgram/cm^2 for 99% control of the fungus.

Rhizoctonia solani = test: Mycelia Inhibition; assay type: cell-based; settings: 25° C., 24 hours
Procedure: as §5

Aspergillus niger = test: Mycelia Inhibition; assay type: cell-based; settings: 25° C., 24 hours
Procedure: as §5

Botrytis cinerea [8] = test: Botrytis cinerea control on detached horsebean leaves; assay type: in vivo; settings: 40-ppm solution, dipped horsebean leaves, 3 to 5 days, 23.5° C
Procedure: The leaves were dipped into a 40-ppm solution of the test compound in acetone and water containing a small amount of a nonionic emulsifier, then taken out and placed in a petri plate lined with two pieces of filter paper. The leaves were allowed to dry while the filter paper was kept moist by adding water as required. The treated leaves were then inoculated with the spores of Botrytis cinerea fungus grown on potato dextrose agar. The plate was covered after inoculation and kept at 23.5° C. The filter-paper lining of the plate was kept saturated with water throughout the test. The rate of disease incidence was determined in 3 to 5 days, when the disease symptoms were fully evident on non-treated check leaves. The percentage disease control provided by the test compound was calculated as the percentage disease reduction based on the non-treated check leaves.

Alternaria solani = test: Tomato Early Blight control; assay type: in vivo; settings: 250-ppm spray, tomato seedlings, inoculated 1 day later
Procedure: Compounds of the invention were tested for the control of the Tomato Early Blight organism, Alternaria solani conidia. […] The tomato plans were sprayed with a 250-ppm solution of the test compound in an acetone-and-water solution containing a small amount of a non-ionic emulsifier. […] Percent disease control was based on the percent disease development on untreated check plants.

Phytophthora infestans = test: whole plant or invertebrate; assay type: in vivo; settings: in Solanum lycopersicum, 168 h, read-out: Tomato Late Blight, % Control
Botrytis cinerea [9] = test: Mycelia Inhibition; assay type: cell-based; settings: 25° C., 24 hours
Procedure: as §5

Septoria apii = assay type: in vivo; settings: sprayed celery plants; concentration not given

Clc1cc(Cl)cc(N=c2ssnc2Cl)c1 [Compound 3]
Mite Eggs Control, % [1]: 85%
Mite Control, % [2]: 90%
pest or weed control at 33 µg/cm2 (Wild Oats (Avena fatua)): 35%
pest or weed control at 33 µg/cm2 [3]: 55%
pest or weed control at 33 µg/cm2 [4]: 100%
pest or weed control at 33 µg/cm2 [5]: 100%
pest or weed control at 33 µg/cm2 [6]: 85%
pest or weed control at 33 µg/cm2 [7]: 100%
Powdery Mildew % Control (Erysiphe polygoni): 76%
Mycelia Inhibition, for 99% control (F) (Fusarium moniloforma): > 1.7 micrograms/cm^2
Mycelia Inhibition, for 99% control (R) (Rhizoctonia solani): 0.98 micrograms/cm^2
Mycelia Inhibition, for 99% control (A) (Aspergillus niger): > 1.7 micrograms/cm^2

Cc1cc(Cl)ccc1N=c1ssnc1Cl [Compound 4, 4-chloro-5-(2-methyl-4-chlorophenylimino)-1,2,3-dithiazole]
Mite Eggs Control, % [1]: 100%
percentage disease control (Botrytis cinerea) (Botrytis cinerea [8]): 92%
Mite Control, % [2]: 94%
pest or weed control at 33 µg/cm2 (Wild Oats (Avena fatua)): 20%
pest or weed control at 33 µg/cm2 [3]: 20%
pest or weed control at 33 µg/cm2 [4]: 70%
pest or weed control at 33 µg/cm2 [5]: 85%
pest or weed control at 33 µg/cm2 [6]: 30%
pest or weed control at 33 µg/cm2 [7]: 70%
Powdery Mildew % Control (Erysiphe polygoni): 100%
Mycelia Inhibition, for 99% control (F) (Fusarium moniloforma): > 1.7 micrograms/cm^2
Mycelia Inhibition, for 99% control (R) (Rhizoctonia solani): 0.63 micrograms/cm^2
Mycelia Inhibition, for 99% control (A) (Aspergillus niger): > 1.7 micrograms/cm^2

Clc1ccc(N=c2ssnc2Cl)c(Cl)c1 [Compound 6]
Mite Eggs Control, % [1]: 0%
Tomato Early Blight, % Control (Alternaria solani): 56%
Mite Control, % [2]: 100%
pest or weed control at 33 µg/cm2 (Wild Oats (Avena fatua)): 30%
pest or weed control at 33 µg/cm2 [3]: 35%
pest or weed control at 33 µg/cm2 [4]: 100%
pest or weed control at 33 µg/cm2 [5]: 95%
pest or weed control at 33 µg/cm2 [6]: 55%
pest or weed control at 33 µg/cm2 [7]: 100%

Cc1ccc(N=c2ssnc2Cl)c(C)c1 [Compound 13]
Mite Eggs Control, % [1]: 30%
pest or weed control at 250 µg/mL (Phytophthora infestans): 63%
Tomato Early Blight, % Control (Alternaria solani): 44%
Mite Control, % [2]: 0%
pest or weed control at 33 µg/cm2 (Wild Oats (Avena fatua)): 0%
pest or weed control at 33 µg/cm2 [3]: 0%
pest or weed control at 33 µg/cm2 [4]: 50%
pest or weed control at 33 µg/cm2 [5]: 35%
pest or weed control at 33 µg/cm2 [6]: 0%
pest or weed control at 33 µg/cm2 [7]: 35%
Mycelia Inhibition, for 99% control (B) (Botrytis cinerea [9]): > 1.7 micrograms/cm^2
Mycelia Inhibition, for 99% control (F) (Fusarium moniloforma): > 1.7 micrograms/cm^2
Mycelia Inhibition, for 99% control (R) (Rhizoctonia solani): > 1.7 micrograms/cm^2
Mycelia Inhibition, for 99% control (A) (Aspergillus niger): 1.1 micrograms/cm^2

O=[N+]([O-])c1ccc(Oc2cccc(N=c3ssnc3Cl)c2)cc1 [Compound 18]
Tomato Early Blight, % Control (Alternaria solani): 44%
Celery Late Blight, % Control (Septoria apii): 64%
Mycelia Inhibition, for 99% control (B) (Botrytis cinerea [9]): > 1.7 micrograms/cm^2
Mycelia Inhibition, for 99% control (F) (Fusarium moniloforma): > 1.7 micrograms/cm^2
Mycelia Inhibition, for 99% control (R) (Rhizoctonia solani): 0.45 micrograms/cm^2
Mycelia Inhibition, for 99% control (A) (Aspergillus niger): > 1.7 micrograms/cm^2

Cc1c(Cl)cccc1N=c1ssnc1Cl [Compound 21]
Mite Eggs Control, % [1]: 99%
pest or weed control at 250 µg/mL (Phytophthora infestans): 63%
Tomato Early Blight, % Control (Alternaria solani): 44%
Mite Control, % [2]: 90%
pest or weed control at 33 µg/cm2 (Wild Oats (Avena fatua)): 0%
pest or weed control at 33 µg/cm2 [3]: 0%
pest or weed control at 33 µg/cm2 [4]: 45%
pest or weed control at 33 µg/cm2 [5]: 20%
pest or weed control at 33 µg/cm2 [6]: 15%
pest or weed control at 33 µg/cm2 [7]: 50%
Powdery Mildew % Control (Erysiphe polygoni): 100%
Mycelia Inhibition, for 99% control (B) (Botrytis cinerea [9]): 1.3 micrograms/cm^2
Mycelia Inhibition, for 99% control (F) (Fusarium moniloforma): > 1.7 micrograms/cm^2
Mycelia Inhibition, for 99% control (R) (Rhizoctonia solani): 1.1 micrograms/cm^2
Mycelia Inhibition, for 99% control (A) (Aspergillus niger): > 1.7 micrograms/cm^2

Fc1ccccc1N=c1ssnc1Cl [Compound 22]
Mite Eggs Control, % [1]: 39%
Tomato Early Blight, % Control (Alternaria solani): 50%
Mite Control, % [2]: 0%
pest or weed control at 33 µg/cm2 (Wild Oats (Avena fatua)): 0%
pest or weed control at 33 µg/cm2 [3]: 0%
pest or weed control at 33 µg/cm2 [4]: 85%
pest or weed control at 33 µg/cm2 [5]: 70%
pest or weed control at 33 µg/cm2 [6]: 20%
pest or weed control at 33 µg/cm2 [7]: 70%
Celery Late Blight, % Control (Septoria apii): 80%
Mycelia Inhibition, for 99% control (F) (Fusarium moniloforma): 1.3 micrograms/cm^2
Mycelia Inhibition, for 99% control (R) (Rhizoctonia solani): 0.73 micrograms/cm^2
Mycelia Inhibition, for 99% control (A) (Aspergillus niger): 1.4 micrograms/cm^2

N#Cc1ccc(N=c2ssnc2Cl)cc1 [Compound 23]
pest or weed control at 250 µg/mL (Phytophthora infestans): 97%
Tomato Early Blight, % Control (Alternaria solani): 90%
Celery Late Blight, % Control (Septoria apii): 63%
Mycelia Inhibition, for 99% control (B) (Botrytis cinerea [9]): 0.78 micrograms/cm^2
Mycelia Inhibition, for 99% control (F) (Fusarium moniloforma): 1.4 micrograms/cm^2
Mycelia Inhibition, for 99% control (R) (Rhizoctonia solani): 0.6 micrograms/cm^2
Mycelia Inhibition, for 99% control (A) (Aspergillus niger): > 1.7 micrograms/cm^2

Cc1ccc(Cl)cc1N=c1ssnc1Cl [Compound 28]
Mite Eggs Control, % [1]: 85%
Mite Control, % [2]: 85%
pest or weed control at 33 µg/cm2 (Wild Oats (Avena fatua)): 45%
pest or weed control at 33 µg/cm2 [3]: 20%
pest or weed control at 33 µg/cm2 [4]: 100%
pest or weed control at 33 µg/cm2 [5]: 95%
pest or weed control at 33 µg/cm2 [6]: 65%
pest or weed control at 33 µg/cm2 [7]: 100%
Powdery Mildew % Control (Erysiphe polygoni): 90%
